How the values were obtained:
[1] = target: Tyrosine-protein kinase ABL1 (Homo sapiens) (UniProt P00519); experiment: Inhibition of ABL1 (unknown origin) assessed as remaining activity at 1 uM by Kinome scan method relative to control
[2] = test system: Tyrosine-protein kinase ABL1 (Homo sapiens), P00519 [F317I]; experiment: Inhibition of ABL1 F317I mutant (unknown origin) assessed as remaining activity at 1 uM by Kinome scan method relative to control
[3] = target: Activin receptor type-2A (Homo sapiens) (UniProt P27037); experiment: Inhibition of ACVR2A (unknown origin) assessed as remaining activity at 1 uM by Kinome scan method relative to control
[4] = target: RAC-gamma serine/threonine-protein kinase (Homo sapiens) (UniProt Q9Y243); experiment: Inhibition of AKT3 (unknown origin) assessed as remaining activity at 1 uM by Kinome scan method relative to control
RAC-gamma serine/threonine-protein kinase (Homo sapiens), sequence (Q9Y243 whole entry): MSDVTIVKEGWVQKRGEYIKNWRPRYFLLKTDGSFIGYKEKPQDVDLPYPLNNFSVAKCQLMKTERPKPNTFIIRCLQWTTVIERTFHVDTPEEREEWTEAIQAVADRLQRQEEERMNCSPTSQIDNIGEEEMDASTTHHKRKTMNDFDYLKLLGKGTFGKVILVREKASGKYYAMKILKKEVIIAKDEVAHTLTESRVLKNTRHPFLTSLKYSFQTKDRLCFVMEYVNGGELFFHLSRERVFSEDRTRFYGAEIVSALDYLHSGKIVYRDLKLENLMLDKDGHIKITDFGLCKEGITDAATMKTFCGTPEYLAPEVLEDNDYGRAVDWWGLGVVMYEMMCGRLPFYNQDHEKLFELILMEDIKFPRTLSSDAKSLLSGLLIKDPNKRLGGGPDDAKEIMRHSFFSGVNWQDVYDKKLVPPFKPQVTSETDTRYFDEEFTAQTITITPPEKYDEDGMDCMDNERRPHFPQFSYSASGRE

[5] = target: 5'-AMP-activated protein kinase catalytic subunit alpha-2 (Homo sapiens) (UniProt P54646); experiment: Inhibition of AMPK-alpha2 (unknown origin) assessed as remaining activity at 1 uM by Kinome scan method relative to control
[6] = target: Ankyrin repeat and protein kinase domain-containing protein 1 (Homo sapiens) (UniProt Q8NFD2); experiment: Inhibition of ANKK1 (unknown origin) assessed as remaining activity at 1 uM by Kinome scan method relative to control
Ankyrin repeat and protein kinase domain-containing protein 1 (Homo sapiens), sequence (Q8NFD2 whole entry, the tested form may be a part): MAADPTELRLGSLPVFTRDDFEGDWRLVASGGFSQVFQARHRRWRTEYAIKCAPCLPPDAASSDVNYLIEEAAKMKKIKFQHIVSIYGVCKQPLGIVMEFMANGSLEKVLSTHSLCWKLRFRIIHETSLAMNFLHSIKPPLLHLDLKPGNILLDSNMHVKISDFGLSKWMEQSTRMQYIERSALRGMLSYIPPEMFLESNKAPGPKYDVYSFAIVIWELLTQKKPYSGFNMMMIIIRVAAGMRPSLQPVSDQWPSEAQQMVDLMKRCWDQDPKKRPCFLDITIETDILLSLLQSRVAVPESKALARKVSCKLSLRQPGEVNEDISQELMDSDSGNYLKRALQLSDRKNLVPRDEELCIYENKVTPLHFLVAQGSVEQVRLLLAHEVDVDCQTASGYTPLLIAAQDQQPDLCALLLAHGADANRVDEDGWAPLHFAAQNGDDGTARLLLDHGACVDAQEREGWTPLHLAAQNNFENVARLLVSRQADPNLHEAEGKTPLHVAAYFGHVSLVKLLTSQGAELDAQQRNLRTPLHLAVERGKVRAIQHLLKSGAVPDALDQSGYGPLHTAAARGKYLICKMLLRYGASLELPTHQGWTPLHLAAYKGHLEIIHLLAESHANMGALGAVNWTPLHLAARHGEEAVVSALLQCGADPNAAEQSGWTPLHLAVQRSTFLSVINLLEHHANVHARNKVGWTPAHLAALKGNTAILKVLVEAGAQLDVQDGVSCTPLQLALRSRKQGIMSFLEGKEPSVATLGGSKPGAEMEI

[7] = target: T1, Aurora kinase A (Homo sapiens) (UniProt O14965); experiment: Inhibition of AURKA (unknown origin) assessed as remaining activity at 1 uM by Kinome scan method relative to control
T1 sequence (whole entry): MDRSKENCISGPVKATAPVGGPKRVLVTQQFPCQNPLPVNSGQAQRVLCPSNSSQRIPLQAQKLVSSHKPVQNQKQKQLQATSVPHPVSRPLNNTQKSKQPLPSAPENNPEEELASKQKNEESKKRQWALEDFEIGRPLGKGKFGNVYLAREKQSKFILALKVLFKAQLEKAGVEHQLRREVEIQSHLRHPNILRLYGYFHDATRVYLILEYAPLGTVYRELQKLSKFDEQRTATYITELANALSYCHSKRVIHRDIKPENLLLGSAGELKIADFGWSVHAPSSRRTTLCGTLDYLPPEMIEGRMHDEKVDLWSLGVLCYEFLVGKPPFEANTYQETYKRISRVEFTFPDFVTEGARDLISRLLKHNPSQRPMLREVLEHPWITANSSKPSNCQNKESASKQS

[8] = target: Cyclin-dependent kinase 3 (Homo sapiens) (UniProt Q00526); experiment: Inhibition of CDK3 (unknown origin) assessed as remaining activity at 1 uM by Kinome scan method relative to control
[9] = target: Interleukin-1 receptor-associated kinase 1 (Homo sapiens) (UniProt P51617); experiment: Inhibition of IRAK1 (unknown origin) assessed as remaining activity at 1 uM by Kinome scan method relative to control
[10] = target: MAP kinase-interacting serine/threonine-protein kinase 2 (Homo sapiens) (UniProt Q9HBH9); experiment: Inhibition of MKNK2 (unknown origin) assessed as remaining activity at 1 uM by Kinome scan method relative to control
MAP kinase-interacting serine/threonine-protein kinase 2 (Homo sapiens), sequence (Q9HBH9 whole entry, looked up): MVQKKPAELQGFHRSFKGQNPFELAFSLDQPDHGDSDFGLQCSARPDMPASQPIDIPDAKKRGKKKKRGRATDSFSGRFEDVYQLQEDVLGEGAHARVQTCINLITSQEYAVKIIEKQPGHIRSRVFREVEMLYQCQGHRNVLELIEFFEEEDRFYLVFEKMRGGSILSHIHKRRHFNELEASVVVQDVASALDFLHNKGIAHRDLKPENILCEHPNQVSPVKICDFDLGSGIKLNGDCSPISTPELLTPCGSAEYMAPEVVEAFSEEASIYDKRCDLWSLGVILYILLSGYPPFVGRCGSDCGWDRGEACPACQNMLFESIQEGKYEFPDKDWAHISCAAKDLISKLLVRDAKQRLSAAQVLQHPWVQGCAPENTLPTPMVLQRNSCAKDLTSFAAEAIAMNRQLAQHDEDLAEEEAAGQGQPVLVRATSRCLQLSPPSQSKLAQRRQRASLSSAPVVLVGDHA

[11] = target: Serine/threonine-protein kinase MRCK beta (Homo sapiens) (UniProt Q9Y5S2); experiment: Inhibition of MRCKB (unknown origin) assessed as remaining activity at 1 uM by Kinome scan method relative to control
[12] = target: T2, cGMP-dependent protein kinase 2 (Homo sapiens) (UniProt Q13237); experiment: Inhibition of PRKG2 (unknown origin) assessed as remaining activity at 1 uM by Kinome scan method relative to control
T2 sequence (whole entry): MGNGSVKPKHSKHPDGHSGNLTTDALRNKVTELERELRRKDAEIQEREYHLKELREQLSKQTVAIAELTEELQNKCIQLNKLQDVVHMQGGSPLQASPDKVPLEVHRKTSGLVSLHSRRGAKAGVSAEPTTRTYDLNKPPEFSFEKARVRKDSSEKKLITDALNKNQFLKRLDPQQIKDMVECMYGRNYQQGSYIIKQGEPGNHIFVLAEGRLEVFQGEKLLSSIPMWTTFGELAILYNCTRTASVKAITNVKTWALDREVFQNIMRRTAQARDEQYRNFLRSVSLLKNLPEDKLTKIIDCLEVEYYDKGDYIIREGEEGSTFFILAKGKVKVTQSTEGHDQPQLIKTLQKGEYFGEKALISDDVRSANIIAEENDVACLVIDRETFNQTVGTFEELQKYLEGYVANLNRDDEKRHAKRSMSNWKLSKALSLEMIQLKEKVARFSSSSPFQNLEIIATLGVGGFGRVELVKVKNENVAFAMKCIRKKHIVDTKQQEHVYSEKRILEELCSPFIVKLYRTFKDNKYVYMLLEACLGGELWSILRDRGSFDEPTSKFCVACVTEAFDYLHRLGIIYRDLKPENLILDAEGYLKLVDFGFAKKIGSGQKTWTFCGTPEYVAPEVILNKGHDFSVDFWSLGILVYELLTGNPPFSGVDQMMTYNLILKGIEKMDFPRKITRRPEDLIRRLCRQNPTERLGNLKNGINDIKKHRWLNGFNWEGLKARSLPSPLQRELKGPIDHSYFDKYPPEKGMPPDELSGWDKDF

[13] = target: Dual specificity testis-specific protein kinase 1 (Homo sapiens) (UniProt Q15569); experiment: Inhibition of TESK1 (unknown origin) assessed as remaining activity at 1 uM by Kinome scan method relative to control
[14] = target: BDNF/NT-3 growth factors receptor (Homo sapiens) (UniProt Q16620); experiment: Inhibition of TRKB (unknown origin) assessed as remaining activity at 1 uM by Kinome scan method relative to control
BDNF/NT-3 growth factors receptor (Homo sapiens), sequence (Q16620 32-822 limits assumed): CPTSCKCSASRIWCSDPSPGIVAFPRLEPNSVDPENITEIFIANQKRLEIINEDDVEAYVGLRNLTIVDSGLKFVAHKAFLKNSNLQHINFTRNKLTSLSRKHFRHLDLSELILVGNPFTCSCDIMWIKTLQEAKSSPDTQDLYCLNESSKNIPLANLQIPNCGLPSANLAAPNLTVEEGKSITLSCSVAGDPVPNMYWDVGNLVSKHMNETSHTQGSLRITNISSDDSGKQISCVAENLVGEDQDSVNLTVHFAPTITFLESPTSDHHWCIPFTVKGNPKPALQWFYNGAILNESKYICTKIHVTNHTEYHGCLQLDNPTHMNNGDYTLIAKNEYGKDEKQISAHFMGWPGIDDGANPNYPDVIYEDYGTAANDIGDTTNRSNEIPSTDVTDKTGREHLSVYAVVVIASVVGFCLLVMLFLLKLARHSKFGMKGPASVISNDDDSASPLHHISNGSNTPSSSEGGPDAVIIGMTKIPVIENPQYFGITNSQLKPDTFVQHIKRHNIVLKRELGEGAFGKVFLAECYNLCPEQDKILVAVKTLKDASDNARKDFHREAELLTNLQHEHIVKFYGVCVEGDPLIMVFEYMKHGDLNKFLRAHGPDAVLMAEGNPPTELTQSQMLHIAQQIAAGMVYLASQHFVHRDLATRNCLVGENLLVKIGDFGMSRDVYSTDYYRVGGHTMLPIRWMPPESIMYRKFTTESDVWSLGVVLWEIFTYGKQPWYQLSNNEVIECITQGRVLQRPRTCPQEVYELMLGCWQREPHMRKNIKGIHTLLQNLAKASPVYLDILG

[15] = target: Serine/threonine-protein kinase 25 (Homo sapiens) (UniProt O00506); experiment: Inhibition of YSK1 (unknown origin) assessed as remaining activity at 1 uM by Kinome scan method relative to control
[16] = target: Mitogen-activated protein kinase kinase kinase 19 (Homo sapiens) (UniProt Q56UN5); experiment: Inhibition of YSK4 (unknown origin) assessed as remaining activity at 1 uM by Kinome scan method relative to control
Mitogen-activated protein kinase kinase kinase 19 (Homo sapiens), sequence (Q56UN5 whole entry): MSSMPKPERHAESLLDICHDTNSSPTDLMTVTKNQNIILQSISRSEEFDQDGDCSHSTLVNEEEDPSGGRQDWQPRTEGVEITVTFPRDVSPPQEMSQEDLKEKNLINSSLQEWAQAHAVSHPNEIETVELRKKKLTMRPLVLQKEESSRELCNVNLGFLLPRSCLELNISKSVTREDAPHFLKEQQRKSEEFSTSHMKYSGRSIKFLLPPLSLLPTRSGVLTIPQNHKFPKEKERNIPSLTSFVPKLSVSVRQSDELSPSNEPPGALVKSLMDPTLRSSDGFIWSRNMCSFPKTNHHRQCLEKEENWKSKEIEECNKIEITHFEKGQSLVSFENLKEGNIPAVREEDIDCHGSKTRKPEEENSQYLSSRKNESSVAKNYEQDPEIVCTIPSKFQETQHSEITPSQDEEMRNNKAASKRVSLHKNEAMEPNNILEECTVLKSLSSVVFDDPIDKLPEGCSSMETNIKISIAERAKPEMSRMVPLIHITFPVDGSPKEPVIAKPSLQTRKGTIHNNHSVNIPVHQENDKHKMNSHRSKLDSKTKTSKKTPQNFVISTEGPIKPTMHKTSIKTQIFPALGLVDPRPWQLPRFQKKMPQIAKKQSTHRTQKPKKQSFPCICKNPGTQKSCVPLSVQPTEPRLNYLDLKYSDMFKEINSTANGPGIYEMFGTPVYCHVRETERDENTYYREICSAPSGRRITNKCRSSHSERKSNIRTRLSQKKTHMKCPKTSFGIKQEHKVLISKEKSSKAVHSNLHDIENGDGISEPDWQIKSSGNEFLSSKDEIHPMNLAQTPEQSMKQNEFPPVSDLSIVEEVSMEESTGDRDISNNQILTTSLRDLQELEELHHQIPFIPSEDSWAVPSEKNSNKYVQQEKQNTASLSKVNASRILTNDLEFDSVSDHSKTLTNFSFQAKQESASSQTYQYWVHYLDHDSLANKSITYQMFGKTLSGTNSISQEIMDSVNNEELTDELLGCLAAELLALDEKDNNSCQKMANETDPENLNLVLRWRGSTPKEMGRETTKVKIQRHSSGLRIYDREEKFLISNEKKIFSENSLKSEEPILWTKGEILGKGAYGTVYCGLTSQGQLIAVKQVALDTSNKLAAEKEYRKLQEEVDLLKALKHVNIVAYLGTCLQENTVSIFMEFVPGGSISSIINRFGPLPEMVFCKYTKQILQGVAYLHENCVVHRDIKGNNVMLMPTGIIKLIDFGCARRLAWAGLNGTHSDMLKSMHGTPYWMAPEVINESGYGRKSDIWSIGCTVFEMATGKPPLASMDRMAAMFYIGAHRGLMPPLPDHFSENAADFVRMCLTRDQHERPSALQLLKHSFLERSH

Tyrosine-protein kinase ABL1 (Homo sapiens), sequence (P00519 whole entry): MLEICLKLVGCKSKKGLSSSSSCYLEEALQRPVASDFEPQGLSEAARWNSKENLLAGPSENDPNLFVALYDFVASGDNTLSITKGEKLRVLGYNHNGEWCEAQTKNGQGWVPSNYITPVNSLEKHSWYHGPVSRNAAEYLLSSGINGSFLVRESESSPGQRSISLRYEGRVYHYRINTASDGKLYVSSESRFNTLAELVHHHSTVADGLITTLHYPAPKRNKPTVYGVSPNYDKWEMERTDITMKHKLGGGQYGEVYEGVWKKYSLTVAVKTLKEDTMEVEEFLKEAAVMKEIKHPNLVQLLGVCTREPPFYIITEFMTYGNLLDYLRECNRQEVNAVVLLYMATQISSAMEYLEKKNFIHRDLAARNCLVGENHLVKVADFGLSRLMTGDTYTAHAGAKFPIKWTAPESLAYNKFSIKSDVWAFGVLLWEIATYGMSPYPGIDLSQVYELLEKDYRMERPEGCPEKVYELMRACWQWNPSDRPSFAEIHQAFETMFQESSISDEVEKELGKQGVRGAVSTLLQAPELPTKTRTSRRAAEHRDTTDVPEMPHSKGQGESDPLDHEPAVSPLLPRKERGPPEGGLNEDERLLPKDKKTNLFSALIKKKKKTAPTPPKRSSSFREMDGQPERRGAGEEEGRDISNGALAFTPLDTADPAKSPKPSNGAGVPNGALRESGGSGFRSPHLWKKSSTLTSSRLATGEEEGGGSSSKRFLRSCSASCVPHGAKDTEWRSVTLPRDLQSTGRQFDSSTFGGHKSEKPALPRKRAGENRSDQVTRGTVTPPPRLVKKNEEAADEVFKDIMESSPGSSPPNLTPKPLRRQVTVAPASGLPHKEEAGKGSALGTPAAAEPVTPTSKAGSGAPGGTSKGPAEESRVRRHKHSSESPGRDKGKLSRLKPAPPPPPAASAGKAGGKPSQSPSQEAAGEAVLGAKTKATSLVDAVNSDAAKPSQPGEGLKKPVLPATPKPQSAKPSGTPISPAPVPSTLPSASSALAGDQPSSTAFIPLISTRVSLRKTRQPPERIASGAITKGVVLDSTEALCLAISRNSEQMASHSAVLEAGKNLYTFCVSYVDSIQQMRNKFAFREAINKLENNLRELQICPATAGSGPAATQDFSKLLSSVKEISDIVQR
Tyrosine-protein kinase ABL1 (Homo sapiens), P00519 [F317I], sequence (P00519 whole entry F317I): as the sequence (P00519 whole entry) above, with F317I counted along it

| SMILES | Activity [1] | Activity [2] | Activity [3] | Activity [4] | Activity [5] | Activity [6] | Activity [7] | Activity [8] | Activity [9] | Activity [10] | Activity [11] | Activity [12] | Activity [13] | Activity [14] | Activity [15] | Activity [16] |
| --- | --- | --- | --- | --- | --- | --- | --- | --- | --- | --- | --- | --- | --- | --- | --- | --- |
| Nc1ccccc1Nc1ccc2c(c1)CCc1ccccc1C2=O | 84% | 78% | 96% | 88% | 95% | 96% | 93% | 85% | 75% | 88% | 71% | 91% | 90% | 85% | 92% | 99% |
| O=C1c2ccc(Nc3ccc(F)cc3F)cc2CCc2ccc(OC[C@H](O)CO)cc21 [Skepinone-L] | 94% | 92% | 95% | 90% | 100% | 99% | 100% | 96% | 100% | 72% | 97% | 100% | 100% | 100% | 100% | 100% |

Reference: ChEMBL document CHEMBL5696441 (Nat Chem Biol, 2011)
